Measured values as given in PubChem BioAssay (NCI).
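Cultured in 96-well plates, cells were exposed to test compound for 48 hours across five concentrations. TGI denotes the concentration required for complete inhibition of growth.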

Assays:
Test in all cases: DTP human tumour cell line panel, 48 h
NCI/ADR-RES ovarian = test system: NCI/ADR-RES ovarian
HCT-15 colon = test system: HCT-15 colon
DU-145 prostate = test system: DU-145 prostate
786-0 renal = test system: 786-0 renal
OVCAR-4 ovarian = test system: OVCAR-4 ovarian
UO-31 renal = test system: UO-31 renal
HCT-116 colon = test system: HCT-116 colon
RPMI-8226 leukemia = test system: RPMI-8226 leukemia
SW-620 colon = test system: SW-620 colon
OVCAR-3 ovarian = test system: OVCAR-3 ovarian
SNB-19 CNS = test system: SNB-19 CNS
A549 NSCLC = test system: A549 NSCLC
SK-OV-3 ovarian = test system: SK-OV-3 ovarian
HOP-92 NSCLC = test system: HOP-92 NSCLC
HL-60(TB) leukemia = test system: HL-60(TB) leukemia
OVCAR-8 ovarian = test system: OVCAR-8 ovarian
NCI-H226 lung = test system: NCI-H226 lung
NCI-H460 lung = test system: NCI-H460 lung
NCI-H522 lung = test system: NCI-H522 lung
HOP-62 NSCLC = test system: HOP-62 NSCLC
MALME-3M melanoma = test system: MALME-3M melanoma
NCI-H23 lung = test system: NCI-H23 lung
SK-MEL-2 melanoma = test system: SK-MEL-2 melanoma
M14 melanoma = test system: M14 melanoma
COLO 205 colon = test system: COLO 205 colon
MDA-MB-231 breast = test system: MDA-MB-231 breast
SF-295 CNS = test system: SF-295 CNS
U251 CNS = test system: U251 CNS
SF-539 CNS = test system: SF-539 CNS
MOLT-4 leukemia = test system: MOLT-4 leukemia
SR leukemia = test system: SR leukemia
RXF 393 renal = test system: RXF 393 renal
IGROV1 ovarian = test system: IGROV1 ovarian
HS 578T breast = test system: HS 578T breast
SNB-75 CNS = test system: SNB-75 CNS
PC-3 prostate = test system: PC-3 prostate
MDA-N = test system: MDA-N
LOX IMVI melanoma = test system: LOX IMVI melanoma
UACC-257 melanoma = test system: UACC-257 melanoma
EKVX NSCLC = test system: EKVX NSCLC
A498 renal = test system: A498 renal
CAKI-1 renal = test system: CAKI-1 renal
UACC-62 melanoma = test system: UACC-62 melanoma
T-47D breast = test system: T-47D breast
SN12C renal = test system: SN12C renal
HCC-2998 colon = test system: HCC-2998 colon
CCRF-CEM leukemia = test system: CCRF-CEM leukemia
K-562 leukemia = test system: K-562 leukemia
OVCAR-5 ovarian = test system: OVCAR-5 ovarian
SK-MEL-5 melanoma = test system: SK-MEL-5 melanoma
HT29 colon = test system: HT29 colon
SK-MEL-28 melanoma = test system: SK-MEL-28 melanoma
SF-268 CNS = test system: SF-268 CNS
MDA-MB-435 = test system: MDA-MB-435
ACHN renal = test system: ACHN renal

Measured: TGI

c1csc(-c2nn3c(C45CC6CC(CC(C6)C4)C5)nnc3s2)c1
> 100 µM: all assays above
